Data taken from patent US7109333B2, “Heterocyclic compounds” (SmithKline Beecham Corporation, priority 1998, dated 2006).
pIC50: −log10 of the molar value. Structures can show the parent of a compound that is named as a salt.

Legend:
[1] = target: T1, c-erbB-2 (Homo sapiens, UniProt P04626); test: Substrate phosphorylation assay, erbB2, assay (b) (SPA, 33P-ATP); type: biochemical; details: Tables 1A and 1B
T1 construct: baculovirus expressed, recombinant constructs of the intracellular domains of c-erbB-2 and c-erbB-4; made in house
T1 sequence (P04626 676-1255 limits assumed): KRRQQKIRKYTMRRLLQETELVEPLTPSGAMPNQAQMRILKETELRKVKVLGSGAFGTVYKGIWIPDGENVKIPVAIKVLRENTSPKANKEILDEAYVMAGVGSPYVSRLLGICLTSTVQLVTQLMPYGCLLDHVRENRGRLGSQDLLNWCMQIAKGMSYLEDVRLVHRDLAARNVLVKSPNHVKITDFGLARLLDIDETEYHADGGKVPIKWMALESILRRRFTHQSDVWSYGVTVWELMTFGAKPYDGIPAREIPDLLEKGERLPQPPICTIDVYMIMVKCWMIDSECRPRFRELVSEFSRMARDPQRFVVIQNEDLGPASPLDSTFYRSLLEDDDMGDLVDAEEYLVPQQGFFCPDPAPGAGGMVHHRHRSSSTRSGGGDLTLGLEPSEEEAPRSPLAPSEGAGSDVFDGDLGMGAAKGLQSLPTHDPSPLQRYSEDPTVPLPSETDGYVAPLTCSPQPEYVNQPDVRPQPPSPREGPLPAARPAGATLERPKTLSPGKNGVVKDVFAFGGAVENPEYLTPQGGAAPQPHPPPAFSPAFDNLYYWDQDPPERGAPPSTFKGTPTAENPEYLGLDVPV
Excerpt: The substrate phosphorylation assays use baculovirus expressed, recombinant constructs of the intracellular domains of c-erbB-2 and c-erbB-4 that are constitutively active and EGFr isolated from solubilised A431 cell membranes. The method measures the ability of the isolated enzymes to catalyse the transfer of the g-phosphate from ATP onto tyrosine residues in a biotinylated synthetic peptide (Biotin-[…]. Substrate phosphorylation was detected following either of the following two procedures: a.) c-ErbB-2, c-ErbB4 or EGFr were incubated for 30 minutes, at room temperature, with 10 mM MnCl2, 10 mM ATP, 5 mM peptide, and test compound (diluted from a 5 mM stock in DMSO, final DMSO concentration is 2%) in 40 mM HEPES buffer, pH 7.4. The reaction was stopped by the addition of EDTA (final concentration 0.15 mM) and a sample was transferred to a streptavidin-coated 96-well plate. The plate was washed and the level of phosphotyrosine on the peptide was determined using a Europium-labelled antiphosphotyrosine antibody and quantified with a time-resolved fluorescence technique. b.) ErbB2 was incubated for 50 minutes at room temperature with 15 mM MnCl2, 2 mM ATP, 0.25 mCi [γ-^33P] ATP/well, 5 mM peptide substrate, and test compound (diluted from a 10 mM stock in DMSO, final DMSO concentration is 2%) in 50 mM MOPS pH 7.2. The reaction was terminated by the addition of […] of PBS containing 2.5 mg/ml streptavidin-coated SPA beads (Amersham Inc.), 50 mM ATP, 10 mM EDTA and 0.1% TX-100. The microtitre plates were sealed and SPA beads were allowed to settle for at least six hours. The SPA signal was measured using a Packard Topcount 96-well plate scintillation counter (Packard Instrument Co., Meriden, Conn.).

[2] = test system: HB4a c5.2 (HB4a transfected with human c-erbB2 cDNA); test: Methylene blue growth inhibition assay, HB4a erbB2; type: cell-based; details: 72 h, HB4a c5.2, 3 days, read-out: Cell Proliferation HB4a erbB2, IC50
Description: (§1) Human breast (BT474), head and neck (HN5) and gastric tumor (N87) cell lines were cultured in low glucose DMEM (Life Technologies 12320–032) containing 10% fetal bovine serum (FBS) at 37° C. in a humidified 10% CO2, 90% air incubator. The SV40 transformed human mammary epithelial cell line HB4a was transfected with either human H-ras cDNA (HB4a r4.2) or the human c-erbB2 cDNA (HB4a c5.2). The HB4a clones were cultured in RPMI containing 10% FBS, insulin (5 μg/ml), hydrocortisone (5 μg/ml), supplemented with the selection agent hygromycin B (50 μg/ml). Cells were harvested using trypsin/EDTA, counted using a haemocytometer, and plated in […] of the appropriate media, at the following densities, in a 96-well tissue culture plate (Falcon 3075): BT474 10,000 cells/well, HN5 3,000 cells/well, N87 10,000 cells/well, HB4a c5.2 3,000 cells/well, HB4a r4.2 3,000 cells/well. The next day, compounds were diluted in DMEM containing […] gentamicin, at twice the final required concentration, from 10 mM stock solutions in DMSO. […] of these dilutions were added to the […] of media currently on the cell plates. Medium containing 0.6% DMSO was added to control wells. Compounds diluted in DMEM were added to all cell lines, including the HB4a r4.2 and HB4a c5.2 cell lines. The final concentration of DMSO in all wells was 0.3%. Cells were incubated at 37° C., 10% CO2 for 3 days. Medium was removed by aspiration. Cell biomass was estimated by staining cells with 100 μl per well methylene blue (Sigma M9140, 0.5% in 50:50 ethanol:water), and incubation at room temperature for at least 30 minutes. Stain was removed, and the plates rinsed under a gentle stream of water, and air-dried. To release stain from the cells 100 μl of solubilization solution was added (1% N-lauroyl sarcosine, Sodium salt, Sigma L5125, in PBS), and plates were shaken gently for about 30 minutes. Optical density at 620 nm was measured on a microplate reader. Percent inhibition of cell growth was calculated relative to vehicle treated control wells. Concentration of compound that inhibits 50% of cell growth (IC50) was interpolated using nonlinear regression (Levenberg-Marquardt) and the equation, y=Vmax*(1−(x/(K+x)))+Y2, where “K” was equal to the IC50.

[3] = test system: HB4a r4.2 (HB4a transfected with human H-ras cDNA); test: Methylene blue growth inhibition assay, HB4a ras; type: cell-based; details: 72 h, HB4a r4.2, 3 days, read-out: Cell Proliferation HB4a ras, IC50
Description: as §1

[4] = test system: BT474 breast tumor cell line; test: Methylene blue growth inhibition assay, BT474; type: cell-based; details: Homo sapiens, BT-474, 72 h; BT474, 3 days; read-out: Cell Proliferation BT474, IC50
Description: as §1

[5] = test system: HN5 head and neck tumor cell line; test: Methylene blue growth inhibition assay, HN5; type: cell-based; details: Homo sapiens, 72 h; HN5, 3 days; read-out: Cell Proliferation HN5, IC50
Description: as §1

[6] = test system: N87 gastric tumor cell line; test: Methylene blue growth inhibition assay, N87; type: cell-based; details: Homo sapiens, 72 h; N87, 3 days; read-out: Cell Proliferation N87, IC50
Description: as §1

| SMILES | pIC50 [1] | pIC50 [2] | pIC50 [3] | pIC50 [4] | pIC50 [5] | pIC50 [6] |
| --- | --- | --- | --- | --- | --- | --- |
| CS(=O)(=O)CCNCc1coc(-c2cc3c(Nc4ccc(OCc5cccc(F)c5)cc4)ncnc3cn2)c1 [Example 6, (4-(3-Fluorobenzyloxy)-phenyl)-(6-(4-((2-methanesulphonyl-ethylamino)-methyl)-furan-2-yl)-pyrido[3,4-d]pyrimidin-4-yl)-amine dihydrochloride] | 6.00 to 7.00 | > 5.30 | 4.30 to 4.60 | > 5.30 | > 5.30 | > 5.30 |
| CS(=O)(=O)CCNCc1ccc(-c2ccc3ncnc(Nc4ccc(OCc5cccc(F)c5)cc4)c3c2)o1 [Example 8, N-{4-[(3-fluorobenzyl)oxy]phenyl}-6-[5-({[2-(methanesulphonyl)ethyl]amino}methyl)-2-furyl]-4-quinazolinamine] | > 7.00 | > 5.30 | 4.60 to 5.30 | > 5.30 | > 5.30 | > 5.30 |
| COc1cc(Nc2ncnc3ccc(-c4ccc(CNCCS(C)(=O)=O)o4)cc23)ccc1OCc1cccc(F)c1 [Example 9, N-{4-[(3-fluorobenzyl)oxy]-3-methoxyphenyl}-6-[5-({[2-(methanesulphonyl)ethyl]amino}methyl)-2-furyl]-4-quinazolinamine] |  | > 5.30 | 4.60 to 5.30 | > 5.30 | > 5.30 | > 5.30 |
| COc1cc2ncnc(Nc3ccc(OCc4ccccc4)cc3)c2cc1-c1ccc(CNCCS(C)(=O)=O)o1 [Example 10] | > 7.00 | > 5.30 | 4.60 to 5.30 | > 5.30 | > 5.30 | > 5.30 |
| CS(=O)(=O)CCNCc1coc(-c2ccc3ncnc(Nc4ccc(OCc5ccccc5)cc4)c3c2)c1 [Example 11, N-[4-(benzyloxy)phenyl]-6-[4-({[2-(methanesulphonyl)ethyl]amino}methyl)-2-furyl]-4-quinazolinamine] | > 7.00 | > 5.30 | < 4.30 | > 5.30 | > 5.30 | > 5.30 |
| COc1cc(Nc2ncnc3ccc(-c4csc(CNCCS(C)(=O)=O)n4)cc23)ccc1OCc1cccc(F)c1 [Example 12, N-{4-[(3-fluorobenzyl)oxy]-3-methoxyphenyl}-6-[2-({[2-(methanesulphonyl)ethyl]amino}methyl)-1,3-thiazol-4-yl]-4-quinazolinamine] | 6.00 to 7.00 | > 5.30 | < 4.30 | > 5.30 | 4.60 to 5.30 | > 5.30 |
| CS(=O)(=O)CCNCc1nc(-c2ccc3ncnc(Nc4ccc(OCc5cccc(Br)c5)cc4)c3c2)cs1 [Example 13, N-{4-[(3-bromobenzyl)oxy]phenyl}-6-[2-({[2-(methanesulphonyl)ethyl]amino}methyl)-1,3-thiazol-4-yl]-4-quinazolinamine] | 6.00 to 7.00 | 4.60 to 5.30 | < 4.30 | 4.60 to 5.30 | 4.30 to 4.60 | 4.60 to 5.30 |
| CS(=O)(=O)CCNCc1nc(-c2ccc3ncnc(Nc4ccc(OCc5cccc(F)c5)cc4)c3c2)cs1 [Example 14, N-{4-[(3-fluorobenzyl)oxy]phenyl}-6-[2-({[2-(methanesulphonyl)ethyl]amino}methyl)-1,3-thiazol-4-yl]-4-quinazolinamine] | > 7.00 | > 5.30 | < 4.30 | > 5.30 | > 5.30 | > 5.30 |
| CS(=O)(=O)CCNCc1nc(-c2ccc3ncnc(Nc4ccc(OCc5ccccc5)c(F)c4)c3c2)cs1 [Example 15, N-[4-(benzyloxy)-3-fluorophenyl]-6-[2-({[2-(methanesulphonyl)ethyl]amino}methyl)-1,3-thiazol-4-yl]-4-quinazolinamine] | > 7.00 | > 5.30 | < 4.30 | > 5.30 | > 5.30 | > 5.30 |
| COc1cc2ncnc(Nc3ccc4c(cnn4Cc4ccccc4)c3)c2cc1-c1ccc(CNCCS(C)(=O)=O)o1 [Example 16, N-(1-benzyl-1H-indazol-5-yl)-7-methoxy-6-[5-({[2-(methanesulphonyl)ethyl]amino}methyl)-2-furyl]-4-quinazolinamine] | > 7.00 | > 5.30 | 4.60 to 5.30 | > 5.30 | > 5.30 | > 5.30 |
| CS(=O)(=O)CCNCc1ccc(-c2ccc3ncnc(Nc4ccc(OCc5cccc(C(F)(F)F)c5)cc4)c3c2)o1 [Example 17, 6-[5-({[2-(methanesulphonyl)ethyl]amino}methyl)-2-furyl]-N-(4-{[3-(trifluoromethyl)benzyl]oxy}phenyl)-4-quinazolinamine] | > 7.00 | 4.60 to 5.30 | 4.60 to 5.30 | > 5.30 | 4.60 to 5.30 | 4.60 to 5.30 |
| CS(=O)(=O)CCNCc1ccc(-c2ccc3ncnc(Nc4ccc(OCc5cccc(F)c5)c(F)c4)c3c2)o1 [Example 18, N-{3-fluoro-4-[(3-fluorobenzyl)oxy]phenyl}-6-[5-({[2-(methanesulphonyl)ethyl]amino}methyl)-2-furyl]-4-quinazolinamine] | > 7.00 | > 5.30 | 4.60 to 5.30 | > 5.30 | > 5.30 | > 5.30 |
| CS(=O)(=O)CCNCc1ccc(-c2ccc3ncnc(Nc4ccc(OCc5cccc(Br)c5)cc4)c3c2)o1 [Example 19, N-{4-[(3-bromobenzyl)oxy]phenyl}-6-[5-({[2-(methanesulphonyl)ethyl]amino}methyl)-2-furyl]-4-quinazolinamine] | > 7.00 | > 5.30 | < 4.30 | > 5.30 | > 5.30 | > 5.30 |
| CS(=O)(=O)CCNCc1ccoc1-c1ccc2ncnc(Nc3ccc(OCc4ccccc4)cc3)c2c1 [Example 20, N-[4-(benzyloxy)phenyl]-6-[3-({[2-(methanesulphonyl)ethyl]amino}methyl)-2-furyl]-4-quinazolinamine] | > 7.00 | > 5.30 | < 4.30 | > 5.30 | 4.60 to 5.30 | > 5.30 |
| CS(=O)(=O)CCNCc1ccc(-c2ccc3ncnc(Nc4ccc(OCc5cccc(F)c5)c(Cl)c4)c3c2)o1 [Example 29, N-{3-Chloro-4-[(3-fluorobenzyl)oxy]phenyl}-6-[5-({[2-(methanesulphonyl)ethyl]amino}methyl)-2-furyl]-4-quinazolinamine] |  | > 5.30 | < 4.30 | > 5.30 | > 5.30 | > 5.30 |
